Data taken from patent US5691365A, “Nicotinic receptor antagonists in the treatment of neuropharmacological disorders” (University of Kentucky Research Foundation, priority 1995, dated 1997).
“And” between values parts separate entries of the source, which are not always exact repeats. Identical values can stand only once. “Also recorded” adds a separate entry of the source.

Experiments:
[1] = tested on: S(-)nicotine (10 μM)-evoked [^3 H]DA release from rat striatal slices; assay type: cell-based
Description: (§1) Biological Methods. Male Spragua-Dawley rats (150-200 g) were obtained from Harlan Laboratories (Indianapolis, Ind.) and were housed two per cage with free access to food and water in the Division of Lab Animal Resources at the College of Pharmacy at the University of Kentucky. Experimental protocols involving the animals were approved by the Institutional Animal Care and Use Committee at the University of Kentucky.
(§2) [^3 H]DA Release Assay. Rat striatal slices (500 μm thickness, 6-8 mg wet weight) were obtained as previously described (Dwoskin and Zahniser, 1986). Slices were incubated for 30 min in Krebs' buffer ([…]; 118 NaCl, 4.7 KCl, 1.2 MgCl2, 1.0 NaH2 PO4, 1.3 CaCl2, […], 11.1 glucose, 25 NaHCO3, 0.11 L-ascorbic acid nd 0.004 disodium EDTA; pH 7.4 and saturated with 95% O2 /5% CO2) in a metabolic shaker at 34°. Slices were rinsed with 15 ml of fresh buffer and incubated for an additional 30 min in fresh buffer containing 0.1 μM [^3 H]dopamine (6 slices/3 ml). Subsequently, slices were rinsed with 15 ml of fresh buffer and transferred to a glass superfusion chamber. Slices were superfused (1.0 ml/min) for 60 min with Krebs' buffer containing nomifensine (10 μm) and pargyline (10 μm) and maintained at 34° C., pH 7.4 with continual aeration (95% O2 /5% CO2). Two 5-min samples (5 ml) were collected to determine basal outflow of [^3 H]DA. N-Substituted nicotine analogues were added to the superfusion buffer after the collection of the second sample and remained in the buffer until 12 consecutive 5-min samples were collected. […] At the end of the experiment each slice was solubilized and the [^3 H] content of the tissue determined.
(§3) Radioactivity in the superfusate and tissue samples was determined by liquid scintillation spectroscopy. Fractional release for each superfusate sample was calculated by dividing the total tritium collected in each sample by the total tritium present in the tissue at the time of sample collection. Basal [^3 H]out flow was calculated from the average of the tritium collected in the two 5-min samples just before addition of the N-substituted nicotine analogue. The sums of the increase in collected tritium resulting from either exposure to the test compound or exposure to nicotine in the absence and presence of the test compound equaled total [^3 H]overflow. [^3 H]overflow was calculated by subtracting the [^3 H]outflow during an equivalent period of prestimulation from the values in samples collected during and after drug exposure. Inasmuch as the radiolabelled compounds were not separated and identified, the tritium collected in superfusate is referred to as either [^3 H]outflow or [^3 H]overflow, rather than as [^3 H]DA. [^3 H]Overflow primarily represents [^3 H]DA in the presence of nomifensine and pargyline in the superfusion buffer (Zumstein et al. 1981).
In these experiments, the striatal slices were superfused for 60 min with various concentrations of the analogues prior to nicotine (10 μM) exposure. Antagonist activity was evaluated by comparing the nicotine-evoked [^3 H]overflow in the absence and presence of the analogues. […] The relative order of potency of the classical and pyridine-N substituted nicotine analogues for inhibition of nicotine-evoked [^3 H]DA release from rat striatal slices is illustrated in FIG. 2 by a comparison of their IC50 values.
FIG. 2. IC50 values for N-substituted analogues of nicotine, nornicotine, and cotinine to inhibit nicotine-evoked [^3 H]DA release from rat striatal slices. Inhibition produced by the classical nicotinic inhibitors, mecamylamine (MEC) and DHBE was also determined. Slices were superfused with inhibitor for 60 min […] co-superfusion with 10 μM nicotine. Inhibition was determined by comparing [^3 H]DA release in the absence and presence of various concentrations of inhibitor. IC50 values were determined using the Logit-log plot (pseudo-Hill plot). […] IC50 for each animal was determined as the intercept of the linear regression.

[2] = tested on: [^3 H]DA release from rat striatal slices; test: [3H]DA release assay: compound-evoked (intrinsic agonist) release; assay type: cell-based; parameters: key to total [3H]overflow (effect on [3H]DA release): summed increase in fractional release (sample tritium / tissue tritium); details: for total [3H]overflow (effect on [3H]DA release): mean ± S.E.M.; for total [3H]overflow (effect on [3H]DA release) / effect on [3H]DA release / intrinsic agonist activity (in words): rat striatal slices
Description: as §1, §2, §3

[3] = Rattus norvegicus, read-out: evoked [3H]DA release relative to S(-)nicotine

Compound	nicotinic antagonist activity / inhibition of nicotine-evoked [3H]DA release (in words) [1]	relative order of potency for inhibition of nicotine-evoked [3H]DA release (comparison of IC50 values) [1]	total [3H]overflow during cosuperfusion with 10 μM nicotine [1]	total [3H]overflow (effect on [3H]DA release) ([2]; Table 3, 1 μM)	total [3H]overflow (effect on [3H]DA release) ([2]; Table 3, 10 μM)	total [3H]overflow (effect on [3H]DA release) ([2]; Table 3, 100 μM)	effect on [3H]DA release / intrinsic agonist activity (in words) ([2]; 1-100 μM)	Emax [2, 3] [%]	Emax at 1 µM [2, 3] [%]	total [3H]overflow (effect on [3H]DA release) ([2]; Table 2, 1 μM)	total [3H]overflow (effect on [3H]DA release) ([2]; Table 2, 10 μM)	total [3H]overflow (effect on [3H]DA release) ([2]; Table 2, 100 μM)	effect on [3H]DA release / intrinsic agonist activity (in words) ([2]; 1-100 μM as stated, listed as Racemic nornicotine)	effect on [3H]DA release / intrinsic agonist activity (in words) ([2]; 1-100 μM as stated, listed as nornicotine)	effect on [3H]DA release / intrinsic agonist activity (in words) ([2]; 1-100 μM as stated, listed as Cotinine)	effect on [3H]DA release / intrinsic agonist activity (in words) ([2]; 1-100 μM as stated, listed as S(-)Cotinine)
C=CCN1CCCC1c1ccc[n+](CC=C)c1 (racemic) [(±)DNANI, (±)di-N-allyl nicotinium iodide]	did not exhibit significant nicotinic antagonist activity over the concentration range tested; also recorded: relatively weak antagonist activity compared to the N-allyl nicotine analogue (NANI)	(±)di-N-allyl nicotinium iodide (DNANI)=(±)N-methyl nornicotinium iodide (NMNNI)=NMNI	2.58 ± 0.54 and 1.85 ± 0.25 and 1.66 ± 0.36	0.02 ± 0.01	0.08 ± 0.04	0.00 ± 0.00										
C[n+]1cccc(C2CCCN2)c1 (racemic) [(±)NMNNI, (±)N-methyl nornicotinium iodide]	did not exhibit significant nicotinic antagonist activity over the concentration range tested	(±)di-N-allyl nicotinium iodide (DNANI)=(±)N-methyl nornicotinium iodide (NMNNI)=NMNI	2.22 ± 1.26 and 3.53 ± 0.85	0.17 ± 0.11	0.01 ± 0.01	2.60 ± 0.38	evoked [^3 H]DA release and thus, possess intrinsic agonist activity at this concentration									
c1cncc([C@@H]2CCCN2)c1 (racemic) [(±)nornicotine, racemic nornicotine, reference compound]								~80	50	1.40 ± 0.24	2.60 ± 0.38	4.20 ± 0.34	concentration-dependent increase in [^3 H]DA release	less potent in producing this effect		
CO[C@H]1CC=C2CCN3CCC4=C(CC(=O)OC4)[C@]23C1 [DHBE, dihydro-β-erythroidine, reference compound]	inhibited but did not completely block nicotine's effect	DHBE=MEC>>NBNB		0.02 ± 0.02	0.36 ± 0.22	2.01 ± 0.28	None of the compounds examined, including DHBE and mecamylmine, had any significant effect on [^3 H]DA release in the concentration range of 1-10 μM; also recorded: also evoked [^3 H]DA release; also recorded: evoked [^3 H]DA release at the highest concentration examined									
CNC1(C)C2CCC(C2)C1(C)C (stereo not shown) [MEC, mecamylamine, reference compound]	inhibited but did not completely block nicotine's effect	DHBE=MEC>>NBNB		0.00 ± 0.00	0.00 ± 0.00	0.00 ± 0.00	None of the compounds examined, including DHBE and mecamylmine, had any significant effect on [^3 H]DA release in the concentration range of 1-10 μM									
CN1CCC[C@H]1c1ccc[n+](Cc2ccccc2)c1 [NBNB, S-N-benzyl nicotinium bromide]	Significant antagonist activity; also recorded: significantly lower potency and efficacy; also recorded: possessing antagonist activity; also recorded: preferred nicotinic receptor antagonist activity	NBNB=NPNI=NnNBI=NANI>NHENI	1.50 ± 0.55 and 1.27 ± 0.35	0.21 ± 0.12	0.28 ± 0.12	6.04 ± 0.97	evoked [^3 H]DA release and thus, possess intrinsic agonist activity at this concentration									
CN1CCC[C@H]1c1ccc[n+](CCO)c1 [NHENI, S-N-hydroxyethyl nicotinium iodide]	Significant antagonist activity; also recorded: preferred nicotinic receptor antagonist activity	NHENI>>>(±)di-N-allyl nicotinium iodide (DNANI)		0.00 ± 0.00	0.00 ± 0.00	0.08 ± 0.04										
CN1C(=O)CC[C@H]1c1ccc[n+](C)c1 [NMCI, S-N-methylcotininium iodide]	did not exhibit significant nicotinic antagonist activity over the concentration range tested; also recorded: devoid of antagonist activity	NMNI=S-N-methylcotininium iodide (NMCI)=S-N'-methyl nicotinium iodide (PIPNMN)	3.11 ± 1.32 and 3.11 ± 1.20 and 3.75 ± 1.66	0.00 ± 0.00	0.01 ± 0.01	0.02 ± 0.01										
CN1CCC[C@H]1c1ccc[n+](C)c1 [NMNI]	did not exhibit significant nicotinic antagonist activity over the concentration range tested; also recorded: no antagonistic activity; also recorded: devoid of antagonist activity	NMNI=S-N-methylcotininium iodide (NMCI)=S-N'-methyl nicotinium iodide (PIPNMN)		0.13 ± 0.11	0.17 ± 0.10	0.08 ± 0.06										
CN1C(=O)CC[C@H]1c1cccnc1 [S(-)cotinine, reference compound]								35		0 ± 0	1.14 ± 0.36	2.06 ± 0.35			no effect at 1 μM	little effect even at high concentrations in the DA release assay
